This is an account of results in patent publication US12570988B2, “Aptamers that bind thiamine analogs and derivatives” (MeiraGTx Gene Regulation Limited, priority 2020, dated 2026).

The test system of assay [1] is riboswitch 15D10. Briefly: Luciferase reporter with 15D10 riboswitch (Luci-15D10) in HEK 293 cells. To be noted: Homo sapiens, HEK293, 24 h, 50 μM; HEK 293 cells; Table 2; read-out: Fold increase in riboswitch 15D10-regulated luciferase expression, HEK. In kind it is cell-based, human. The method, then:
Transfection: 3.5×10^4 human embryonic kidney (HEK) 293 cells were plated in a 96-well flat bottom plate the day before transfection. Plasmid DNA (500 ng) was added to a tube or a 96-well U-bottom plate. […] Then, 50 μL of this diluted transfection reagent was added to the DNA, mixed, and incubated at RT for 20 min. Finally, 7 μL of this solution was added to a well of cells in the 96-well plate. Four hours after transfection, medium containing transfection solution was replaced by medium containing either TPP, fursultiamine, prosultiamine, bisbentiamine, beclotiamine hydrochloride, or sulbutiamine as aptamer inducers.
Firefly luciferase assay of cultured cells: Twenty-four hours after media change, plates were removed from the incubator, and equilibrated to RT for several minutes on a lab bench, then aspirated. Glo-lysis buffer (Promega, 100 μL, RT) was added, and the plates allowed to remain at RT for at least 5 minutes. Then, the well contents were mixed by 50 μL trituration, and 20 μL of each sample was mixed with 20 μL of bright-glo reagent (Promega) that had been diluted to 10% in glo-lysis buffer. 96 wells were spaced on an opaque white 384-well plate. Following a 5 min incubation at RT, luminescence was measured using a Tecan machine with 500 ms read time. The luciferase activity was expressed as mean arbitrary light units (ALU)±S.D., and fold induction was calculated as the quotient of the luciferase activity obtained from cells with TPP or analog treatment divided by the luciferase activity obtained from cells without TPP or analog treatment.
(In a reporter assay the amount or activity of a reporter protein is the signal.)

Assay [2] has as its system riboswitch 15D10. Briefly: Luciferase reporter with 15D10 riboswitch (Luci-15D10) in AML12 cells. Type of assay: cell-based, mouse. To be noted: Mus musculus, AML12, 24 h, 50 μM; AML12 cells; Table 2; read-out: Fold increase in riboswitch 15D10-regulated luciferase expression, AML.

Turning to `COc1ccc2cc(C(=O)S/C(CCO)=C(/C)N(C=O)Cc3cnc(C)nc3N)ccc2c1` [Compound M52, (Z)—S-(2-(N-((4-amino-2-methylpyrimidin-5-yl)methyl)formamido)-5-hydroxypent-2-en-3-yl) 6-methoxynaphthalene-2-carbothioate], the fold induction at 50 µM in the assay on riboswitch 15D10 [1] came to 364; with riboswitch 15D10 [2] it was 195.
For `C/C(=C(\CCO)SC(=O)C12CC3CC(CC(C3)C1)C2)N(C=O)Cc1cnc(C)nc1N` [Compound M53, S—((Z)-2-(N-((4-amino-2-methylpyrimidin-5-yl)methyl)formamido)-5-hydroxypent-2-en-3-yl) (3r,5r,7r)-adamantane-1-carbothioate], the results for the fold induction at 50 µM in the assay with riboswitch 15D10 [1] and in the assay on riboswitch 15D10 [2] were 2.4 and 57, respectively.
Taken in the same sequence, the figures for `C/C(=C(\CCO)SC(=O)C(C)c1ccccc1)N(C=O)Cc1cnc(C)nc1N` (stereo not drawn) [Compound M54, (Z)—S-(2-(N-((4-amino-2-methylpyrimidin-5-yl)methyl)formamido)-5-hydroxypent-2-en-3-yl) 2-phenylpropanethioate] were 3 and 13.9.
Regarding `C/C(=C(\CCO)SC(=O)C(C)(C)Cc1ccccc1)N(C=O)Cc1cnc(C)nc1N` [Compound M55, (Z)—S-(2-(N-((4-amino-2-methylpyrimidin-5-yl)methyl)formamido)-5-hydroxypent-2-en-3-yl) 2,2-dimethyl-3-phenylpropanethioate], the fold induction at 50 µM with riboswitch 15D10 [1] came to 2.1; in the assay on riboswitch 15D10 [2] it was 9.
`C/C(=C(\CCO)SC(=O)C1(C)CCCCC1)N(C=O)Cc1cnc(C)nc1N` [Compound M57, (Z)—S-(2-(N-((4-amino-2-methylpyrimidin-5-yl)methyl)formamido)-5-hydroxypent-2-en-3-yl) 1-methylcyclohexane-1-carbothioate]: the fold induction at 50 µM in the assay on riboswitch 15D10 [1] was determined as 1.2; in the assay with riboswitch 15D10 [2], 24.4.
Taken in the same sequence, the figures for `C/C(=C(\CCO)SC(=O)C(C)(c1ccccc1)c1ccccc1)N(C=O)Cc1cnc(C)nc1N` [Compound M58, (Z)—S-(2-(N-((4-amino-2-methylpyrimidin-5-yl)methyl)formamido)-5-hydroxypent-2-en-3-yl) 2,2-diphenylpropanethioate] were 1.1 and 1.5.
For `C/C(=C(\CCO)SC(=O)C(c1ccccc1)C(C)C)N(C=O)Cc1cnc(C)nc1N` (stereo not drawn) [Compound M59, (Z)—S-(2-(N-((4-amino-2-methylpyrimidin-5-yl)methyl)formamido)-5-hydroxypent-2-en-3-yl) 3-methyl-2-phenylbutanethioate], in that order: 1.1 and 1.
With `C/C(=C(\CCO)SC(=O)C1(C)Cc2ccccc2C1)N(C=O)Cc1cnc(C)nc1N` [Compound M62, (Z)—S-(2-(N-((4-amino-2-methylpyrimidin-5-yl)methyl)formamido)-5-hydroxypent-2-en-3-yl) 2-methyl-2,3-dihydro-1H-indene-2-carbothioate], the figures for the fold induction at 50 µM in the assay with riboswitch 15D10 [1] and in the assay on riboswitch 15D10 [2] were 49 and 110, respectively.
Regarding `C/C(=C(\CCO)SC(=O)C(C)(C)c1ccc2ccccc2c1)N(C=O)Cc1cnc(C)nc1N` [Compound M63, (Z)—S-(2-(N-((4-amino-2-methylpyrimidin-5-yl)methyl)formamido)-5-hydroxypent-2-en-3-yl) 2-methyl-2-(naphthalen-2-yl)propanethioate], the fold induction at 50 µM with riboswitch 15D10 [1] turned out to be 1.7; in the assay with riboswitch 15D10 [2], 19.
For `C/C(=C(\CCO)SC(=O)C(c1ccccc1)c1ccccc1)N(C=O)Cc1cnc(C)nc1N` [Compound M64, (Z)—S-(2-(N-((4-amino-2-methylpyrimidin-5-yl)methyl)formamido)-5-hydroxypent-2-en-3-yl) 2,2-diphenylethanethioate], in that order: 2 and 3.9.
For `C/C(=C(\CCO)SC(=O)C1(c2cccc(Br)c2)CC1)N(C=O)Cc1cnc(C)nc1N` [Compound M65, (Z)—S-(2-(N-((4-amino-2-methylpyrimidin-5-yl)methyl)formamido)-5-hydroxypent-2-en-3-yl) 1-(3-bromophenyl)cyclopropane-1-carbothioate], in that order: 3.2 and 67.1.
Taken in the same sequence, the figures for `C/C(=C(\CCO)SC(=O)c1c(Cl)cc(-c2ccccc2)cc1Cl)N(C=O)Cc1cnc(C)nc1N` [Compound M66, (Z)—S-(2-(N-((4-amino-2-methylpyrimidin-5-yl)methyl)formamido)-5-hydroxypent-2-en-3-yl) 3,5-dichloro-[1,1′-biphenyl]-4-carbothioate] were 1.1 and 0.4.
As for `C/C(=C(\CCO)SC(=O)c1c(C)cc(C(C)(C)C)cc1C)N(C=O)Cc1cnc(C)nc1N` [Compound M67, (Z)—S-(2-(N-((4-amino-2-methylpyrimidin-5-yl)methyl)formamido)-5-hydroxypent-2-en-3-yl) 4-(tert-butyl)-2,6-dimethylbenzothioate], the values for the fold induction at 50 µM in the assay with riboswitch 15D10 [1] and in the assay with riboswitch 15D10 [2] were 2.1 and 0.9, respectively.
Turning to `C/C(=C(\CCO)SC(=O)c1ccc(-c2ccccc2)cc1Cl)N(C=O)Cc1cnc(C)nc1N` [Compound M68, (Z)—S-(2-(N-((4-amino-2-methylpyrimidin-5-yl)methyl)formamido)-5-hydroxypent-2-en-3-yl) 3-chloro-[1,1′-biphenyl]-4-carbothioate], the fold induction at 50 µM in the assay on riboswitch 15D10 [1] was found to be 303; in the assay on riboswitch 15D10 [2], 209.
For `C/C(=C(\CCO)SC(=O)c1cc(C(C)(C)C)cc(C(C)(C)C)c1)N(C=O)Cc1cnc(C)nc1N` [Compound M70, (Z)—S-(2-(N-((4-amino-2-methylpyrimidin-5-yl)methyl)formamido)-5-hydroxypent-2-en-3-yl) 3,5-di-tert-butylbenzothioate], in that order: 51 and 236.
Taken in the same sequence, the figures for `C/C(=C(\CCO)SC(=O)c1cccc(-c2ccccc2)c1)N(C=O)Cc1cnc(C)nc1N` [Compound M72, (Z)—S-(2-(N-((4-amino-2-methylpyrimidin-5-yl)methyl)formamido)-5-hydroxypent-2-en-3-yl) [1,1′-biphenyl]-3-carbothioate] were 236 and 295.
For `C/C(=C(\CCO)SC(=O)c1ccc(Oc2ccccc2)cc1)N(C=O)Cc1cnc(C)nc1N` [Compound M73, (Z)—S-(2-(N-((4-amino-2-methylpyrimidin-5-yl)methyl)formamido)-5-hydroxypent-2-en-3-yl) 4-phenoxybenzothioate], in that order: 205 and 200.
Consider `C/C(=C(\CCO)SC(=O)c1ccc2oc3ccccc3c2c1)N(C=O)Cc1cnc(C)nc1N` [Compound M76, (Z)—S-(2-(N-((4-amino-2-methylpyrimidin-5-yl)methyl)formamido)-5-hydroxypent-2-en-3-yl) dibenzo[b,d]furan-2-carbothioate], for which the fold induction at 50 µM was determined as 60.7 with riboswitch 15D10 [1] and 134 with riboswitch 15D10 [2].
Taken in the same sequence, the figures for `C/C(=C(\CCO)SC(=O)c1ccc2sccc2c1)N(C=O)Cc1cnc(C)nc1N` [Compound M79, (Z)—S-(2-(N-((4-amino-2-methylpyrimidin-5-yl)methyl)formamido)-5-hydroxypent-2-en-3-yl) benzo[b]thiophene-5-carbothioate] were 353 and 358.
